Source: article PMC8694024 (RSC Advances, 2021)
Where two headings read alike, the source gives them in different places.

Assays:
[1] = biological target: T1, β-glucosidase from Aspergillus niger (Aspergillus niger, UniProt A2RAL4); assay: Inhibition of β-glucosidase from Aspergillus niger, β-p-NPG substrate; format: biochemical; details: read-out: Apparent IC50, A. niger β-glucosidase; pH 4.6, β-p-NPG substrate
T1 sequence (A2RAL4 20-860): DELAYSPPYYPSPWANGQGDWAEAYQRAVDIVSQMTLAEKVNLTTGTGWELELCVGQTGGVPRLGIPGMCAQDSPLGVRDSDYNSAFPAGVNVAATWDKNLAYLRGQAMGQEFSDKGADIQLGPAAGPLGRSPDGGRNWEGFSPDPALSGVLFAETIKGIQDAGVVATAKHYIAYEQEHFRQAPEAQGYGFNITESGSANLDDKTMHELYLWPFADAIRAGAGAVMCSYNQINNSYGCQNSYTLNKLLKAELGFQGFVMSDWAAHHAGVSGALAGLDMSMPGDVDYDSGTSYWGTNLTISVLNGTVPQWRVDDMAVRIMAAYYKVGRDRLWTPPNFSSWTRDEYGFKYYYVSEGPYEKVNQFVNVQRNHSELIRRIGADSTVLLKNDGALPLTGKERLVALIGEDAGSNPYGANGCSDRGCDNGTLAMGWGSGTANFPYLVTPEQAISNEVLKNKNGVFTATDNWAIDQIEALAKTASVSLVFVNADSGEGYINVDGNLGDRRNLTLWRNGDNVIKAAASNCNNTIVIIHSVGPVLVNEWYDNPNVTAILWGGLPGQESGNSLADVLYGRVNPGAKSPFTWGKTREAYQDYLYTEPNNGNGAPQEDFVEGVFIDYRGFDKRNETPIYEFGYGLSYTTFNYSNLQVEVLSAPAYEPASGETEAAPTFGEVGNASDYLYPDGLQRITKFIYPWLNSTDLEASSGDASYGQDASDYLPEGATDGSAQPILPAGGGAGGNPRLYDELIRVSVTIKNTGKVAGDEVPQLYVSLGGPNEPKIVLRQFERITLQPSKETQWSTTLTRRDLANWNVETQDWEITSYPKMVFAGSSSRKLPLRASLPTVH

[2] = biological target: rat intestinal maltase; assay: Inhibitory effects on rat intestinal α-glucosidases: maltase; format: biochemical; details: read-out: Apparent IC50, Maltase; rat intestinal disaccharidases
[3] = biological target: T2, rat intestinal isomaltase (Rattus norvegicus, UniProt P23739); assay: Inhibitory effects on rat intestinal α-glucosidases: isomaltase; format: biochemical
[4] = biological target: rat intestinal sucrase (Rattus norvegicus, UniProt P23739); assay: Inhibitory effects on rat intestinal α-glucosidases: sucrase; format: biochemical
[5] = biological target: T2, rat intestinal isomaltase; details: read-out: Apparent IC50, Isomaltase; rat intestinal disaccharidases; cited from earlier work
[6] = system: intestinal α-glucosidases; details: cited from earlier work
[7] = biological target: rat intestinal maltase; details: read-out: Apparent IC50, Maltase; rat intestinal disaccharidases; cited from earlier work
[8] = biological target: recombinant human α-glucosidase GAA (Homo sapiens, UniProt P10253); assay: Inhibition of recombinant human α-glucosidase GAA; format: biochemical
[9] = read-out: Apparent IC50, Isomaltase, rat intestinal disaccharidases
[10] = read-out: Apparent IC50, Sucrase, rat intestinal disaccharidases

Chain of rat intestinal sucrase (P23739 whole entry): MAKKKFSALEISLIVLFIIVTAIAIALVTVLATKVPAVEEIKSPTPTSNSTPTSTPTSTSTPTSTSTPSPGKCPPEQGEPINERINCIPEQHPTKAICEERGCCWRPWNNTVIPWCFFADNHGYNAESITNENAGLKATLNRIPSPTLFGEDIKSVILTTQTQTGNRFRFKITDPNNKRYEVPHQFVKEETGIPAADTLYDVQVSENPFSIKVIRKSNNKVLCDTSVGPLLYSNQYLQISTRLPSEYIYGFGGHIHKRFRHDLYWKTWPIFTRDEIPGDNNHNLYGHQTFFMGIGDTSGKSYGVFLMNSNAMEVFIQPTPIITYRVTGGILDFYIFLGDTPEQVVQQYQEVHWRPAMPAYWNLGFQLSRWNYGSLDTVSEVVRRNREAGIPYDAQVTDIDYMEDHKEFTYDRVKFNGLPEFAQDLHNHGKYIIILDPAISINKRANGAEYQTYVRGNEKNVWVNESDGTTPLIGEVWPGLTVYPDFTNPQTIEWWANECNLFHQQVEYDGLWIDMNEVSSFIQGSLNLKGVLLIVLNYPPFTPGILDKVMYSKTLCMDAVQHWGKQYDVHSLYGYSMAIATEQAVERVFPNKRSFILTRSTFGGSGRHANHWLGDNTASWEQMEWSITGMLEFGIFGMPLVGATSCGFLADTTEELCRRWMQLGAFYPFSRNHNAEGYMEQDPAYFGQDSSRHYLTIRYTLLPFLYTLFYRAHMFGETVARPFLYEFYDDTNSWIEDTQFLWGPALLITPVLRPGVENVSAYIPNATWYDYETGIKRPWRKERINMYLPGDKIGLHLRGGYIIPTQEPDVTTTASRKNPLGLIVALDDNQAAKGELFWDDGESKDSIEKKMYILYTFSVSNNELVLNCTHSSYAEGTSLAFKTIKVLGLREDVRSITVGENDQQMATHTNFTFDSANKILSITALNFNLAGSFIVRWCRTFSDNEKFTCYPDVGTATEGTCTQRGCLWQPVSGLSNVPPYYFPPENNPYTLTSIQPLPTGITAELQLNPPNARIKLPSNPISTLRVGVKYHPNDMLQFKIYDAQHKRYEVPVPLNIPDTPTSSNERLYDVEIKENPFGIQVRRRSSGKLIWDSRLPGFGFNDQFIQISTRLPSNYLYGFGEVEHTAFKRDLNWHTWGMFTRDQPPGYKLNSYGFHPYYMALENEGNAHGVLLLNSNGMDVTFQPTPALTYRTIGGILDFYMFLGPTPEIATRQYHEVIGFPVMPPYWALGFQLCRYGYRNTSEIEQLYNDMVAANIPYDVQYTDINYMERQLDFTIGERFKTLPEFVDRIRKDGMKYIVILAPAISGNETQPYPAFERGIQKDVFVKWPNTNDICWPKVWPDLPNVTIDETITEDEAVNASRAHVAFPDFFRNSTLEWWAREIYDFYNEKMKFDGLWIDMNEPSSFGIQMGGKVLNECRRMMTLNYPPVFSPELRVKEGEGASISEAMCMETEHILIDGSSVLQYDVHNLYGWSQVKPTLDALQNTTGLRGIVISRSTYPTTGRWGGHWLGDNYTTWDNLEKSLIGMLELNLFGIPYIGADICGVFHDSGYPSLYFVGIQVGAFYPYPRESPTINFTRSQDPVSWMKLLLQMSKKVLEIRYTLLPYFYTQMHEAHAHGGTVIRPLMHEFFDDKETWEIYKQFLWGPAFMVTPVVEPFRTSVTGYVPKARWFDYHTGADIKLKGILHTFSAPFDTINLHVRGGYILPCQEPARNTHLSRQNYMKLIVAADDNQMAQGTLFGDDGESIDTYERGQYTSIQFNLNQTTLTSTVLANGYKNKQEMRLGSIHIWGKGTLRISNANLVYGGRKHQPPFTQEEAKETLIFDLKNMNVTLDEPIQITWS
T2 sequence (P23739 whole entry): as above

IC50 [1] | IC50 [2] | IC50 [3, 9] | IC50 [4, 10] | Compound | further results
> 1000 µM | > 100 µM | 34 µM | – | 2', 3'-epi-Neosalacinol [Compound 13] | –
> 1000 µM | > 100 µM | > 100 µM | > 100 µM | 2'-epi-Salacinol [Compound 10] | –
> 1000 µM | > 100 µM | > 100 µM | – | 2'-epi-Neosalacinol [Compound 11] | –
> 1000 µM | > 100 µM | 6.4 µM | 19 µM | 3'-epi-Salacinol [Compound 8] | –
> 1000 µM | > 100 µM | > 100 µM | > 100 µM | 2', 3'-epi-Salacinol [Compound 12] | –
– | – | – | – | O=S(=O)([O-])O[C@@H](CO)[C@H](O)C[S@+]1C[C@@H](O)[C@H](O)[C@H]1CO [Compound 1, Salacinol] | IC50 [5]: 5.2 µM; type of inhibition (Lineweaver–Burk plots) [6]: competitive type of inhibition; IC50 [7]: 5.2 µM
> 1000 µM | 4.3 µM | 0.58 µM | 0.69 µM | 3'-epi-Neosalacinol [Compound 9] | –
– | – | – | – | OCC(CO)N[C@H]1C[C@](O)(CO)[C@@H](O)[C@H](O)[C@H]1O [Voglibose] | Ki [8]: 7.6 ± 0.8 µM
– | 25 µM | – | – | [O-][C@@H](CO)[C@H](O)C[S@+]1C[C@@H](O)[C@H](O)[C@H]1CO [Compound 2, neosalacinol, reference compound] | IC50 [4]: 3.6 µM; Ki [8]: 3.6 ± 0.3 µM; IC50 [3]: 0.45 µM
